Assay results: PubChem BioAssay AID1845202 (Molecular Pharmacology Branch, DTP, NCI, 2023)

Test system: DMS 114 tumor spheroids, viability % test/control
Experiment: Anticancer human tumor DMS 114 cell line growth inhibition;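 further: spheroids exposed to compounds for 7 days before read-out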;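 on viability, T/C: luminescence used as a proxy for viable cells; 100% = DMSO vehicle control viability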
Settings: spheroids with HUVEC and MSC; for IC50: curve of first compound; for viability, T/C: stronger effect = lower value
Procedure, shortened: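 Single agents and combinations were tested on spheroids built from tumor cells plus HUVEC and hMSC, at half-log dilutions starting at or near clinical Cmax, else 10 microM; final DMSO 0.25% (v/v).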

[1] = second compound 30 pM, first compound 0.0316 µM
[2] = second compound 30 pM, first compound 0.1 µM
[3] = second compound 30 pM, first compound 0.316 µM
[4] = second compound 30 pM, first compound 1 µM
[5] = second compound 30 pM, first compound 3.16 µM
[6] = second compound 30 pM, first compound 10 µM
[7] = second compound 94.9 pM, first compound 0.0316 µM
[8] = second compound 94.9 pM, first compound 0.1 µM
[9] = second compound 94.9 pM, first compound 0.316 µM
[10] = second compound 94.9 pM, first compound 1 µM
[11] = second compound 94.9 pM, first compound 3.16 µM
[12] = second compound 94.9 pM, first compound 10 µM
[13] = second compound 0.0003 µM, first compound 0.0316 µM
[14] = second compound 0.0003 µM, first compound 0.1 µM
[15] = second compound 0.0003 µM, first compound 0.316 µM
[16] = second compound 0.0003 µM, first compound 1 µM
[17] = second compound 0.0003 µM, first compound 3.16 µM
[18] = second compound 0.0003 µM, first compound 10 µM
[19] = second compound 0.000949 µM, first compound 0.0316 µM
[20] = second compound 0.000949 µM, first compound 0.1 µM
[21] = second compound 0.000949 µM, first compound 0.316 µM
[22] = second compound 0.000949 µM, first compound 1 µM
[23] = second compound 0.000949 µM, first compound 3.16 µM
[24] = second compound 0.000949 µM, first compound 10 µM
[25] = second compound 0.003 µM, first compound 0.0316 µM
[26] = second compound 0.003 µM, first compound 0.1 µM
[27] = second compound 0.003 µM, first compound 0.316 µM
[28] = second compound 0.003 µM, first compound 1 µM
[29] = second compound 0.003 µM, first compound 3.16 µM
[30] = second compound 0.003 µM, first compound 10 µM

Compound | IC50 (second compound 30 pM) [µM] | IC50 (second compound 94.9 pM) [µM] | IC50 (second compound 0.0003 µM) [µM] | IC50 (second compound 0.000949 µM) [µM] | IC50 (second compound 0.003 µM) [µM] | viability, T/C [1] [%] | viability, T/C [2] [%] | viability, T/C [3] [%] | viability, T/C [4] [%] | viability, T/C [5] [%] | viability, T/C [6] [%] | viability, T/C [7] [%] | viability, T/C [8] [%] | viability, T/C [9] [%] | viability, T/C [10] [%] | viability, T/C [11] [%] | viability, T/C [12] [%] | viability, T/C [13] [%] | viability, T/C [14] [%] | viability, T/C [15] [%] | further results
COc1cc(C)[nH]c(=O)c1CN1CCc2c(Cl)cc(C(OC)C3COC3)c(Cl)c2C1=O (stereo not given) + COc1cc2c(cc1O)CCNC21CSC2c3c(OC(C)=O)c(C)c4c(c3C(COC1=O)N1C(O)C3Cc5cc(C)c(OC)c(O)c5C(C21)N3C)OCO4 | > 10 | > 10 | < 0.0316 | < 0.0316 | < 0.0316 | 118 | 90.5 | 83.5 | 82.1 | 74.8 | 69.6 | 89.1 | 85.9 | 86.7 | 66.2 | 65.1 | 56 | 38.9 | 43.3 | 41.4 | viability, T/C [16]: 34.7%; viability, T/C [17]: 28.9%; viability, T/C [18]: 26.6%; viability, T/C [19]: 2.76%; viability, T/C [20]: 4.07%; viability, T/C [21]: 4.68%; viability, T/C [22]: 3.28%; viability, T/C [23]: 2.76%; viability, T/C [24]: 1.64%; viability, T/C [25]: 0.25%; viability, T/C [26]: 0.27%; viability, T/C [27]: 0.26%; viability, T/C [28]: 0.24%; viability, T/C [29]: 0.24%; viability, T/C [30]: 0.29%
CC(C)n1c(=O)n(C)c2cnc3cc(F)c(-c4ccc(OCCCN5CCCCC5)nc4)cc3c21 + COc1cc2c(cc1O)CCNC21CSC2c3c(OC(C)=O)c(C)c4c(c3C(COC1=O)N1C(O)C3Cc5cc(C)c(OC)c(O)c5C(C21)N3C)OCO4 | 4.1 | 1.6 | < 0.0316 | < 0.0316 | < 0.0316 | 75.2 | 102 | 91.9 | 84.7 | 59 | 19.2 | 63 | 52.2 | 54.2 | 58.5 | 42.3 | 16.5 | 21.9 | 23.5 | 22.8 | viability, T/C [16]: 20.6%; viability, T/C [17]: 22.3%; viability, T/C [18]: 8.07%; viability, T/C [19]: 2.63%; viability, T/C [20]: 2.62%; viability, T/C [21]: 2.73%; viability, T/C [22]: 5.38%; viability, T/C [23]: 2.74%; viability, T/C [24]: 1.03%; viability, T/C [25]: 0.2%; viability, T/C [26]: 0.22%; viability, T/C [27]: 0.17%; viability, T/C [28]: 0.14%; viability, T/C [29]: 0.12%; viability, T/C [30]: 0.23%
